The target of this assay is T1, human AspH (His6-AspH315–758) (Homo sapiens, UniProt Q12797).
T1 construct: N-Terminally His6-tagged human AspH315–758 (His6-AspH315–758) was produced in Escherichia coli BL21 (DE3) cells; made in house; host or cells: Escherichia coli BL21 (DE3), pET-28a(+) vector
T1 sequence (Q12797 315-758): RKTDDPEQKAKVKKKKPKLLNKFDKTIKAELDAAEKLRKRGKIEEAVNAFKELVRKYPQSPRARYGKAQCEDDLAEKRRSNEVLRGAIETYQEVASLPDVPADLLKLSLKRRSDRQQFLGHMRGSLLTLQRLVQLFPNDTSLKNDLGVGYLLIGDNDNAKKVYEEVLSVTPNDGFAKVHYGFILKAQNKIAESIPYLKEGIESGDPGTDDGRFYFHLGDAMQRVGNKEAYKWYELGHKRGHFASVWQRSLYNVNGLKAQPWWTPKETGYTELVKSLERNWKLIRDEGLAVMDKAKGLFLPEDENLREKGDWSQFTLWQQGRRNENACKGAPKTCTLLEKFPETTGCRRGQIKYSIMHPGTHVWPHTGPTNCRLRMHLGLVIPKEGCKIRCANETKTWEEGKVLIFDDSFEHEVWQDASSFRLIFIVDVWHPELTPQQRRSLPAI
The assay is described as follows: SPE-MS AspH inhibition assay (hFX-CP101-119 substrate hydroxylation). The assay is classed as biochemical. The note with it: AspH-inhibitor screening; for Plate 1 (% inhibition): 384-well Plate 1; for Plate 1 (% conversion): 384-well Plate 1, substrate conversion; for Plate 1-duplicate (% conversion): substrate conversion.

Structures can show the parent of a compound that is named as a salt.

For the compound `CO[C@H]1C[C@@H]2CC[C@@H](C)[C@@](O)(O2)C(=O)C(=O)N2CCCC[C@H]2C(=O)O[C@H]([C@H](C)C[C@@H]2CC[C@@H](OCCO)[C@H](OC)C2)CC(=O)[C@H](C)/C=C(\C)[C@@H](O)[C@@H](OC)C(=O)[C@H](C)C[C@H](C)/C=C/C=C/C=C/1C` [Everolimus], the “Plate 1 (% inhibition)” value is reported as -18.20%, the “Plate 1 (% conversion)” value was found to be 58.15%, the “Plate 1-duplicate (% inhibition)” value was -27.79% and the “Plate 1-duplicate (% conversion)” value is reported as 65.82%.
Taken in the same sequence, the figures for `C=C1C[C@@H]2[C@H](CC[C@]3(C)C(=O)CC[C@@H]23)[C@@]2(C)C=CC(=O)C=C12` [Exemestane] were -2.81%, 51.05%, 2.16% and 50.97%.
Taken in the same sequence, the figures for `C=CC[C@@H]1/C=C(\C)C[C@H](C)C[C@H](OC)[C@H]2O[C@@](O)(C(=O)C(=O)N3CCCC[C@H]3C(=O)O[C@H](/C(C)=C/[C@@H]3CC[C@@H](O)[C@H](OC)C3)[C@H](C)[C@@H](O)CC1=O)[C@H](C)C[C@@H]2OC.O` [FK 506_Tacrolimus] were -2.23%, 50.78%, -2.68% and 53.37%.
The corresponding values for `Cl.O=C(/C=C/c1cccnc1)NCCCCC1CCN(C(=O)c2ccccc2)CC1` [FK-866 HCl_Daporinad] are 2.15%, 48.76%, -6.78% and 55.40%.
With `CC(C)(C)NC(=O)[C@H]1CC[C@H]2[C@@H]3CC[C@H]4NC(=O)C=C[C@]4(C)[C@H]3CC[C@]12C` [Finasteride], the “Plate 1 (% inhibition)” value is -3.25%, the “Plate 1 (% conversion)” value worked out at 51.25%, the “Plate 1-duplicate (% inhibition)” value came out at 5.03% and the “Plate 1-duplicate (% conversion)” value is listed as 49.55%.
The corresponding values for `O=c1[nH]c(=O)n([C@H]2C[C@H](O)[C@@H](CO)O2)cc1F` [Floxuridine] are 0.74%, 49.41%, 5.87% and 49.13%.
In the case of `Nc1nc(F)nc2c1ncn2[C@@H]1O[C@H](COP(=O)(O)O)[C@@H](O)[C@@H]1O` [Fludarabine phosphate], the “Plate 1 (% inhibition)” value worked out at 5.12%, the “Plate 1 (% conversion)” value was determined as 47.39%, the “Plate 1-duplicate (% inhibition)” value is listed as 1.33% and the “Plate 1-duplicate (% conversion)” value is reported as 51.38%.
The corresponding values for `O=c1[nH]cc(F)c(=O)[nH]1` [Fluorouracil] are 7.47%, 46.30%, 5.36% and 49.38%.
In the case of `CC(C)C(=O)Nc1ccc([N+](=O)[O-])c(C(F)(F)F)c1` [Flutamide], the “Plate 1 (% inhibition)” value amounted to 0.33%, the “Plate 1 (% conversion)” value is reported as 49.60%, the “Plate 1-duplicate (% inhibition)” value came out at 10.24% and the “Plate 1-duplicate (% conversion)” value is recorded as 46.97%.
Taken in the same sequence, the figures for `C[C@]12CC[C@@H]3c4ccc(O)cc4C[C@@H](CCCCCCCCC[S+]([O-])CCCC(F)(F)C(F)(F)F)[C@H]3[C@@H]1CC[C@@H]2O` (stereo partly drawn) [Fulvestrant] were 40.68%, 30.96%, 22.43% and 40.92%.
With `CC(C)NC[C@@H](C(=O)N1CCN(c2ncnc3c2[C@H](C)C[C@H]3O)CC1)c1ccc(Cl)cc1` [GDC-0068], the “Plate 1 (% inhibition)” value is reported as -1.30%, the “Plate 1 (% conversion)” value was found to be 50.35%, the “Plate 1-duplicate (% inhibition)” value came out at 4.48% and the “Plate 1-duplicate (% conversion)” value is listed as 49.82%.
The corresponding values for `CS(=O)(=O)N1CCN(Cc2cc3nc(-c4cccc5[nH]ncc45)nc(N4CCOCC4)c3s2)CC1` [GDC-0941_Pictilisib] are 1.37%, 49.12%, 2.57% and 50.77%.
Taken in the same sequence, the figures for `Cc1c(CN2CCN(C(=O)[C@H](C)O)CC2)sc2c(N3CCOCC3)nc(-c3cnc(N)nc3)nc12` [GDC-0980] were 2.44%, 48.62%, 1.54% and 51.28%.
Taken in the same sequence, the figures for `CC(=O)Nc1cccc(-n2c(=O)n(C3CC3)c(=O)c3c(Nc4ccc(I)cc4F)n(C)c(=O)c(C)c32)c1` [GSK1120212_Trametinib] were -0.37%, 49.92%, -2.41% and 53.24%.
Turning to `COc1ncc(-c2ccc3nccc(-c4ccnnc4)c3c2)cc1NS(=O)(=O)c1ccc(F)cc1F` [GSK2126458], the “Plate 1 (% inhibition)” value is listed as 8.17%, the “Plate 1 (% conversion)” value is on record as 45.98%, the “Plate 1-duplicate (% inhibition)” value was determined as 17.15% and the “Plate 1-duplicate (% conversion)” value was 43.54%.
Taken in the same sequence, the figures for `Cc1c(Cn2c(C)nc3c(C(=O)O)cc(N4CCOCC4)cc32)cccc1C(F)(F)F` [GSK2636771] were -0.51%, 49.98%, 13.40% and 45.39%.
The corresponding values for `CCn1c(-c2nonc2N)nc2cnc(Oc3cccc(NC(=O)c4ccc(OCCN5CCOCC5)cc4)c3)cc21` [GSK 269962] are -27.40%, 62.40%, -34.23% and 69.02%.
Taken in the same sequence, the figures for `O=C(O)c1ccc(-c2c[nH]c3ncc(-c4ccccc4)cc23)cc1C1CCCC1` [GSK 650394] were 57.76%, 23.08%, 56.10% and 24.22%.
`C[C@@H]1C=C2C(=O)O[C@@H]3CC[C@H](C1)[C@]23O` [Galiellalactone]: the “Plate 1 (% inhibition)” value came out at 15.61%, the “Plate 1 (% conversion)” value stood at 42.54%, the “Plate 1-duplicate (% inhibition)” value is 8.63% and the “Plate 1-duplicate (% conversion)” value stood at 47.76%.
The corresponding values for `COc1cc2ncnc(Nc3ccc(F)c(Cl)c3)c2cc1OCCCN1CCOCC1` [Gefitinib] are -37.34%, 66.99%, -37.51% and 70.65%.
The corresponding values for `Nc1ccn([C@@H]2O[C@H](CO)[C@@H](O)C2(F)F)c(=O)n1` [Gemcitabine hydrochloride] are 1.09%, 49.25%, 10.34% and 46.91%.
For the compound `CC(C)C[C@H](NC(=O)[C@@H](COC(C)(C)C)NC(=O)[C@H](Cc1ccc(O)cc1)NC(=O)[C@H](CO)NC(=O)[C@H](Cc1c[nH]c2ccccc12)NC(=O)[C@H](Cc1cnc[nH]1)NC(=O)[C@@H]1CCC(=O)N1)C(=O)N[C@@H](CCCNC(=N)N)C(=O)N1CCC[C@H]1C(=O)NNC(N)=O` [Goserelin acetate], the “Plate 1 (% inhibition)” value was -21.27%, the “Plate 1 (% conversion)” value is given as 59.57%, the “Plate 1-duplicate (% inhibition)” value is listed as -15.30% and the “Plate 1-duplicate (% conversion)” value came to 59.63%.
The corresponding values for `O=S(=O)(c1cccc2cnccc12)N1CCCNCC1` [HA-1077 (Fasudil)] are 1.01%, 49.28%, 12.84% and 45.67%.
Taken in the same sequence, the figures for `COC(=O)C[C@](O)(CCCC(C)(C)O)C(=O)O[C@@H]1C(OC)=C[C@]23CCCN2CCc2cc4c(cc2[C@H]13)OCO4` [Homoharringtonine] were 6.00%, 46.98%, 5.43% and 49.35%.
Taken in the same sequence, the figures for `NC(=O)NO` [Hydroxyurea] were 16.85%, 41.97%, 8.68% and 47.74%.
For the compound `COc1cc2c(cc1-c1c(C)noc1C)ncc1[nH]c(=O)n([C@H](C)c3ccccn3)c12` [I-BET151 (GSK1210151A)], the “Plate 1 (% inhibition)” value is on record as 3.78%, the “Plate 1 (% conversion)” value worked out at 48.01%, the “Plate 1-duplicate (% inhibition)” value came to 1.98% and the “Plate 1-duplicate (% conversion)” value amounted to 51.06%.
For the compound `N#CC[C@H](C1CCCC1)n1cc(-c2ncnc3[nH]ccc23)cn1` [INCB018424 (free base, Ruxolitinib)], the “Plate 1 (% inhibition)” value came to 4.31%, the “Plate 1 (% conversion)” value is 47.76%, the “Plate 1-duplicate (% inhibition)” value was found to be 3.98% and the “Plate 1-duplicate (% conversion)” value was determined as 50.07%.
